From PMC5484120 (Marine Drugs, 2017)
Several values for one entry are separate records, joined by “and”; a condition that tells them apart may be missing. Equal values may be shown once.

Target: T1, hα9α10 nAChR (Homo sapiens, UniProt Q9GZZ6+Q9UGM1)
T1 construct: expressed in transfected cells; host or cells: Xenopus laevis oocytes injected with cRNA
Assay: cell-based
Assay type: cell-based

T1 sequence (Q9UGM1 26-479 limits assumed): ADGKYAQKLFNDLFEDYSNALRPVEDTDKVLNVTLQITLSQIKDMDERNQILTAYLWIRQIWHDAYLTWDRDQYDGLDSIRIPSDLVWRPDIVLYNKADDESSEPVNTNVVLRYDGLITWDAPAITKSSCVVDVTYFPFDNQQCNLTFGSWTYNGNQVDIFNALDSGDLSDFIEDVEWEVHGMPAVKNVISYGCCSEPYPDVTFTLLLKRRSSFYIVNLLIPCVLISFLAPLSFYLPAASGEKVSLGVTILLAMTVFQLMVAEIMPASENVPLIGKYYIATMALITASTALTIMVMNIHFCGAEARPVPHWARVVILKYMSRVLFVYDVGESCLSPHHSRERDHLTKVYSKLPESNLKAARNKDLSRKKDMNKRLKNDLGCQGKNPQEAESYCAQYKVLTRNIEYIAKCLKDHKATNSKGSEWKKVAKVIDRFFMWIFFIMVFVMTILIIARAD
T1 sequence (Q9GZZ6 25-450): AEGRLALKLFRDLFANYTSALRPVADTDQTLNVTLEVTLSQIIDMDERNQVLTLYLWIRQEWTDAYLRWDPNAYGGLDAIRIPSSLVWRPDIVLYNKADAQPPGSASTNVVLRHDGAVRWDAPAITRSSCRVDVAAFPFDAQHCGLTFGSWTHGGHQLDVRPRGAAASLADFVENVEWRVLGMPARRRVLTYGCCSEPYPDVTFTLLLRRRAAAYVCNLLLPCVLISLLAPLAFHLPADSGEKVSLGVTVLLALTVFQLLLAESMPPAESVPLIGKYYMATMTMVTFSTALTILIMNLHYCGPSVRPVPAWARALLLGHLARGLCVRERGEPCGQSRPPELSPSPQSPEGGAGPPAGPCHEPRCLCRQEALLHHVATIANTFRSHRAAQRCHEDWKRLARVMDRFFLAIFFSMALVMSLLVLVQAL

SMILES: CSCC[C@H](NC(=O)[C@H](CC(C)C)NC(=O)[C@H](C)N)C(=O)N[C@@H](CO)C(=O)N[C@H](C(=O)NCC(=O)N[C@H](C(=O)N[C@@H](CC(N)=O)C(=O)N[C@@H](Cc1ccc(O)cc1)C(=O)N[C@@H](CCCNC(=N)N)C(=O)N[C@@H](CC(C)C)C(=O)N[C@@H](CC(C)C)C(=O)N[C@@H](CCCCN)C(=O)N[C@H](C(=O)N[C@@H](CSCC(N)=O)C(=O)N[C@@H](CCCNC(=N)N)C(=O)NCC(=O)N[C@@H](CO)C(=O)NCC(=O)N[C@@H](CCCNC(=N)N)C(=O)N[C@@H](Cc1ccc(O)cc1)C(=O)N[C@@H](CSCC(N)=O)C(=O)N[C@@H](CCCNC(=N)N)C(=O)N[C@@H](CO)C(=O)N1CCC[C@H]1C(=O)N[C@@H](Cc1ccc(O)cc1)C(=O)O)[C@@H](C)O)[C@@H](C)O)[C@@H](C)O [GeXXVIIA-L-Nter]
- IC50: 222 ± 14 nM
- inhibition of ACh-evoked current, hα9α10 nAChR: > 90% and ~ 55%
